{"source": "patent US11682473B2", "about": "“Skin permeability prediction” (priority 2016, dated 2023)", "origin": "cited, not measured here", "settings": "for log KP, Experimental: Experimental row of Table 16 (in vitro diffusion cells); for log KPexp: uncorrected literature value (permeabilities in cm/h); for log Kp303K: experimental literature values (in vitro diffusion cells), averaged over sources, temperature-corrected to 303 K", "note": "Like-named read-outs stand apart in the source and are kept apart here.", "data": [{"smiles": "CN1CCCC1c1cccnc1", "note": "(stereo not shown) [Nicotine, nicotine]", "values": [{"measurement": "log KP, Experimental", "result": "−1.8", "unit": "cm/h"}, {"measurement": "log KPexp", "setting": "Texp 25 °C", "result": "−1.71"}, {"measurement": "log KPexp", "setting": "Texp 37 °C", "result": "−2.48"}, {"measurement": "log Kp303K", "result": "−1.8", "unit": "cm/h"}]}, {"smiles": "c1ccccc1", "note": "[Benzene, benzene]", "values": [{"measurement": "log KPexp", "setting": "Texp 25 °C", "result": "−0.80"}, {"measurement": "log KPexp", "setting": "Texp 31 °C", "result": "−0.95"}, {"measurement": "log Kp303K", "result": "−0.8", "unit": "cm/h"}]}, {"smiles": "COc1ccc2c3c1O[C@H]1[C@@H](O)C=C[C@H]4[C@@H](C2)N(C)CC[C@@]341", "note": "[Codeine, codeine]", "values": [{"measurement": "log KP, Experimental", "result": "−4.6", "unit": "cm/h"}, {"measurement": "log KPexp", "setting": "Texp 37 °C", "result": "−4.6"}, {"measurement": "log Kp303K", "result": "−4.6", "unit": "cm/h"}]}]}
